Results published in patent US20020197653A1, “System for detecting reporter gene expression” (priority 2001, published 2002).

Test system: NOS gene under the control of the Gal10 promoter (iNOS)
Assay: Small-molecule-induced expression of the NOS reporter gene in yeast, detected by bead-bound fluorescein-based NO sensor
Assay type: cell-based
Details: yeast culture in 96-well plates, galactose final concentration 100 mM, TENTAGEL sensor beads, fluorescent microscope with CCD camera
Description: The lactone function of the sensor is effectively aminolysed at room temperature over 48 hours. The apparent loading achieved was about 10% (0.03 mmol/g), although it is possible that much lower loading was in fact achieved.
We have also obtained a yeast strain developed by Mansuy et al (Sari et al. Biochemistry 35(22):7204-7213, June 1996; incorporated herein by reference) in which transcription of the NOS gene is under the control of the Gal10 promoter and is therefore inducible (and is referred to as iNOS). We grew the yeast cells in glucose media (SGI medium containing 7 g/L yeast nitrogen base without amino acids, 1 g/L casamino acids, 20 g/L glucose, and 50 mg/L tryptophan, at 30 ° C.) so that expression of the iNOS gene was repressed. The cells were harvested and washed with medium lacking any sugar (7 g/L yeast nitrogen base without amino acids, 1 g/L casamino acids and 50 mg/L tryptophan), were resuspended in the same sugar-free medium, and were distributed into 96-well plates.
The TENTAGEL beads containing sensor were washed with CH2Cl2, THF, DMF, i-PrOH, MeOH, EtOH, and deionized water, and were dried. 10 μl of sensor beads in sugar-free medium were added to wells containing 170 μl of yeast culture (20-30 beads per well). […]

SMILES: O=C[C@H](O)[C@@H](O)[C@@H](O)[C@H](O)CO [galactose]
- color change of NO sensor beads exposed to induced cells (iNOS reporter expression): distinct color change (green ->yellow)
